Drawing on ChEMBL document CHEMBL2375306, “Antimicrobial peptides containing unnatural amino acid exhibit potent bactericidal activity against ESKAPE pathogens” (Bioorg Med Chem, 2013), this text covers MBC, MIC and Activity for four molecules.

In one data set the test system is Acinetobacter baumannii. The data set can be described thus: Antibacterial activity against Acinetobacter baumannii WRAIR clinical isolate 13 after 24 hrs by broth microdilution method. The data set is classed as functional. Conditions: WRAIR clinical isolate 13, 24 h.
The subject of a further data set is Klebsiella pneumoniae. The experiment in a line: Antibacterial activity against Klebsiella pneumoniae BAMS clinical isolate 07-18 after 24 hrs by broth microdilution method. It is filed as functional. Conditions: BAMS clinical isolate 07-18, 24 h.
The test system of data set [1] is Staphylococcus aureus. The data set can be described thus: Antibacterial activity against methicillin-sensitive Staphylococcus aureus UAMS-1 after 24 hrs by broth microdilution method. Conditions: UAMS-1, 24 h. It is filed as functional.
For a further data set, the system named is Pseudomonas aeruginosa. The data set can be described thus: Antibacterial activity against Pseudomonas aeruginosa PAO1 after 24 hrs by broth microdilution method. It is filed as functional. Conditions: PAO1, 24 h.
In data set [2] the test system is NHDF. The experiment in a line: Cytotoxicity against NHDF at 50 ug/ml after 6 hrs by MTT assay. It is filed as cell-based. Conditions: human.
For data set [3], the system named is NHDF. The experiment in a line: Cytotoxicity against NHDF at >50 ug/ml after 6 hrs by MTT assay. The data set is classed as cell-based. Conditions: human.
A further data set has as its system Enterococcus faecium. The data set can be described thus: Antibacterial activity against Enterococcus faecium MMC4 after 24 hrs by broth microdilution method. Conditions: MMC4, 24 h. The data set is classed as functional.
Data set [4] has as its system NHDF. The data set can be described thus: Cytotoxicity against NHDF at >50 ug/ml after 6 hrs by LDH assay. It is filed as cell-based. Conditions: human.
For a further data set, the system named is Klebsiella aerogenes. The data set can be described thus: Antibacterial activity against Enterobacter aerogenes after 24 hrs by broth microdilution method. The data set is classed as functional.
Data set [5] concerns Staphylococcus aureus. The data set can be described thus: Antibacterial activity against community-associated methicillin-resistant Staphylococcus aureus USA300 after 24 hrs by broth microdilution method. The data set is classed as functional. As to conditions: USA300, 24 h.
The test system of data set [6] is NHDF. The experiment in a line: Cytotoxicity against NHDF at 50 ug/ml after 6 hrs by LDH assay. Conditions: human. The data set is classed as cell-based.

SMILES strings stand for the structures. ≈ marks a conversion by molar mass, not a printed value. Square brackets hold non-standard residues; d marks the D form. Peptide text beside a SMILES is read from it. ξ: configuration not given here. Pro(3ξ,4ξ-(CH2)4) = O=C(O)[C@H]1NCC2CCCCC21; Tic = O=C(O)[C@@H]1Cc2ccccc2CN1; Orn = NCCC[C@H](N)C(=O)O; Dab = NCC[C@H](N)C(=O)O; Dap = NC[C@H](N)C(=O)O Some results are limits rather than exact numbers.

Turning to `CC(=O)NCC(=O)N[C@@H](Cc1ccccc1)C(=O)N1Cc2ccccc2C[C@H]1C(=O)N1CC2CCCCC2[C@H]1C(=O)NCC(=O)N[C@@H](CCN)C(=O)N1Cc2ccccc2C[C@H]1C(=O)N1CC2CCCCC2[C@H]1C(=O)NCC(=O)N[C@@H](Cc1ccccc1)C(=O)N1Cc2ccccc2C[C@H]1C(=O)N1CC2CCCCC2[C@H]1C(=O)NCC(=O)N[C@@H](CCN)C(=O)N1Cc2ccccc2C[C@H]1C(=O)N[C@@H](CCN)C(=O)N[C@@H](CCN)C(=O)N[C@@H](CCN)C(=O)N[C@@H](CCN)C(N)=O` (some centres not stated) (Ac-GF[Tic][Pro(3ξ,4ξ-(CH2)4)]G[Dab][Tic][Pro(3ξ,4ξ-(CH2)4)]GF[Tic][Pro(3ξ,4ξ-(CH2)4)]G[Dab][Tic][Dab][Dab][Dab][Dab]-NH2), the MBC is 12.5 µg/mL (≈ 5.5 µM) in the data set on Acinetobacter baumannii; 12.5 µg/mL (≈ 5.5 µM) in the data set with Klebsiella pneumoniae; 50 µg/mL (≈ 22 µM) in the data set with Staphylococcus aureus [1]; 25 µg/mL (≈ 11 µM) against Pseudomonas aeruginosa; 50 µg/mL (≈ 22 µM) in the data set with Enterococcus faecium; 25 µg/mL (≈ 11 µM) in the data set with Klebsiella aerogenes. Also, the MIC against Acinetobacter baumannii was determined as 6.25 µg/mL (≈ 2.75 µM); in the data set on Klebsiella pneumoniae, 12.5 µg/mL (≈ 5.5 µM); with Staphylococcus aureus [1], 50 µg/mL (≈ 22 µM); in the data set with Pseudomonas aeruginosa, 12.5 µg/mL (≈ 5.5 µM); against Enterococcus faecium it was 6.25 µg/mL (≈ 2.75 µM); against Klebsiella aerogenes it was 25 µg/mL (≈ 11 µM). Moreover, in the data set on Staphylococcus aureus [5], the MIC was found to be 25 µg/mL (≈ 11 µM). The Activity entry in the data set on NHDF [2] was “Non-toxic”; in the data set on NHDF [3], “Toxic”; with NHDF [4], “Toxic”; in the data set with NHDF [6], “Non-toxic”.

As for `CC(C)C[C@H](NC(=O)[C@@H](N)CCCCN)C(=O)N1Cc2ccccc2C[C@H]1C(=O)N1CC2CCCCC2[C@H]1C(=O)N[C@@H](CCCCN)C(=O)NCC(=O)N1Cc2ccccc2C[C@H]1C(=O)N1CC2CCCCC2[C@H]1C(=O)N[C@@H](Cc1ccccc1)C(=O)NCC(=O)N1Cc2ccccc2C[C@H]1C(=O)N1CC2CCCCC2[C@H]1C(=O)N[C@@H](CCCCN)C(=O)NCC(=O)N1Cc2ccccc2C[C@H]1C(=O)N1CC2CCCCC2[C@H]1C(=O)N[C@@H](Cc1ccccc1)C(=O)NCC(=O)N1Cc2ccccc2C[C@H]1C(=O)N1CC2CCCCC2[C@H]1C(=O)N[C@@H](CCCCN)C(=O)NCC(=O)N1Cc2ccccc2C[C@H]1C(=O)N1CC2CCCCC2[C@H]1C(=O)N[C@@H](CCCCN)C(=O)N[C@@H](CCCCN)C(=O)N[C@@H](CCCCN)C(=O)N[C@@H](CCCCN)C(N)=O` (some centres not stated) (H-KL[Tic][Pro(3ξ,4ξ-(CH2)4)]KG[Tic][Pro(3ξ,4ξ-(CH2)4)]FG[Tic][Pro(3ξ,4ξ-(CH2)4)]KG[Tic][Pro(3ξ,4ξ-(CH2)4)]FG[Tic][Pro(3ξ,4ξ-(CH2)4)]KG[Tic][Pro(3ξ,4ξ-(CH2)4)]KKKK-NH2), the MBC was 25 µg/mL (≈ 6.95 µM) with Acinetobacter baumannii; 50 µg/mL (≈ 13.9 µM) against Klebsiella pneumoniae; 50 µg/mL (≈ 13.9 µM) in the data set on Staphylococcus aureus [1]; 50 µg/mL (≈ 13.9 µM) against Pseudomonas aeruginosa; 25 µg/mL (≈ 6.95 µM) in the data set on Enterococcus faecium; 50 µg/mL (≈ 13.9 µM) against Klebsiella aerogenes. Besides, the MIC against Acinetobacter baumannii was found to be 12.5 µg/mL (≈ 3.47 µM); in the data set on Klebsiella pneumoniae, 50 µg/mL (≈ 13.9 µM); against Staphylococcus aureus [1] it was 12.5 µg/mL (≈ 3.47 µM); against Pseudomonas aeruginosa, 50 µg/mL (≈ 13.9 µM); in the data set on Enterococcus faecium, 6.25 µg/mL (≈ 1.74 µM); in the data set with Klebsiella aerogenes, 50 µg/mL (≈ 13.9 µM). The Activity entry in the data set with NHDF [2] is recorded as “Non-toxic”; in the data set on NHDF [3], “Toxic”; with NHDF [4] it was “Toxic”; in the data set on NHDF [6] it was “Non-toxic”.

Turning to `CC(C)C[C@H](NC(=O)[C@@H](N)CN)C(=O)N1Cc2ccccc2C[C@H]1C(=O)N1CC2CCCCC2[C@H]1C(=O)N[C@@H](CN)C(=O)N1Cc2ccccc2C[C@H]1C(=O)N1CC2CCCCC2[C@H]1C(=O)N[C@@H](Cc1ccccc1)C(=O)N1Cc2ccccc2C[C@H]1C(=O)N1CC2CCCCC2[C@H]1C(=O)N[C@@H](CN)C(=O)N1Cc2ccccc2C[C@H]1C(=O)N1CC2CCCCC2[C@H]1C(=O)N[C@@H](Cc1ccccc1)C(=O)N1Cc2ccccc2C[C@H]1C(=O)N1CC2CCCCC2[C@H]1C(=O)N[C@@H](CN)C(=O)N1Cc2ccccc2C[C@H]1C(=O)N1CC2CCCCC2[C@H]1C(=O)N[C@@H](CN)C(=O)N[C@@H](CN)C(=O)N[C@@H](CN)C(=O)N[C@@H](CN)C(N)=O` (some centres not stated) (H-[Dap]L[Tic][Pro(3ξ,4ξ-(CH2)4)][Dap][Tic][Pro(3ξ,4ξ-(CH2)4)]F[Tic][Pro(3ξ,4ξ-(CH2)4)][Dap][Tic][Pro(3ξ,4ξ-(CH2)4)]F[Tic][Pro(3ξ,4ξ-(CH2)4)][Dap][Tic][Pro(3ξ,4ξ-(CH2)4)][Dap][Dap][Dap][Dap]-NH2), the MBC turned out to be 50 µg/mL (≈ 16.8 µM) with Acinetobacter baumannii; 100 µg/mL (≈ 33.6 µM) in the data set with Klebsiella pneumoniae; 100 µg/mL (≈ 33.6 µM) against Staphylococcus aureus [1]; 100 µg/mL (≈ 33.6 µM) in the data set with Pseudomonas aeruginosa; 25 µg/mL (≈ 8.4 µM) in the data set with Enterococcus faecium; 100 µg/mL (≈ 33.6 µM) in the data set with Klebsiella aerogenes. Moreover, the minimum inhibitory concentration (MIC) against Acinetobacter baumannii was found to be 12.5 µg/mL (≈ 4.2 µM); with Klebsiella pneumoniae, 100 µg/mL (≈ 33.6 µM); against Staphylococcus aureus [1], 50 µg/mL (≈ 16.8 µM); in the data set with Pseudomonas aeruginosa, 50 µg/mL (≈ 16.8 µM); against Enterococcus faecium, 12.5 µg/mL (≈ 4.2 µM); against Klebsiella aerogenes it was 100 µg/mL (≈ 33.6 µM).

Turning to `CC(C)C[C@H](NC(=O)[C@@H](N)CCCN)C(=O)N1Cc2ccccc2C[C@H]1C(=O)N1CC2CCCCC2[C@H]1C(=O)N[C@@H](CCCN)C(=O)N1Cc2ccccc2C[C@H]1C(=O)N1CC2CCCCC2[C@H]1C(=O)N[C@@H](Cc1ccccc1)C(=O)N1Cc2ccccc2C[C@H]1C(=O)N1CC2CCCCC2[C@H]1C(=O)N[C@@H](CCCN)C(=O)N1Cc2ccccc2C[C@H]1C(=O)N1CC2CCCCC2[C@H]1C(=O)N[C@@H](Cc1ccccc1)C(=O)N1Cc2ccccc2C[C@H]1C(=O)N1CC2CCCCC2[C@H]1C(=O)N[C@@H](CCCN)C(=O)N1Cc2ccccc2C[C@H]1C(=O)N1CC2CCCCC2[C@H]1C(=O)N[C@@H](CCCN)C(=O)N[C@@H](CCCN)C(=O)N[C@@H](CCCN)C(=O)N[C@@H](CCCN)C(N)=O` (some centres not stated) (H-[Orn]L[Tic][Pro(3ξ,4ξ-(CH2)4)][Orn][Tic][Pro(3ξ,4ξ-(CH2)4)]F[Tic][Pro(3ξ,4ξ-(CH2)4)][Orn][Tic][Pro(3ξ,4ξ-(CH2)4)]F[Tic][Pro(3ξ,4ξ-(CH2)4)][Orn][Tic][Pro(3ξ,4ξ-(CH2)4)][Orn][Orn][Orn][Orn]-NH2), the MBC is 100 µg/mL (≈ 31.2 µM) with Acinetobacter baumannii; above 100 µg/mL with Klebsiella pneumoniae; 100 µg/mL (≈ 31.2 µM) in the data set with Staphylococcus aureus [1]; above 100 µg/mL against Pseudomonas aeruginosa; 50 µg/mL (≈ 15.6 µM) in the data set with Enterococcus faecium; above 100 µg/mL against Klebsiella aerogenes. In addition, the MIC in the data set with Acinetobacter baumannii came out at 12.5 µg/mL (≈ 3.91 µM); in the data set on Klebsiella pneumoniae, 100 µg/mL (≈ 31.2 µM); with Staphylococcus aureus [1] it was 50 µg/mL (≈ 15.6 µM); in the data set on Pseudomonas aeruginosa, 100 µg/mL (≈ 31.2 µM); against Enterococcus faecium it was 12.5 µg/mL (≈ 3.91 µM); with Klebsiella aerogenes, 100 µg/mL (≈ 31.2 µM).
